Where two headings read alike, the source gives them in different places.
Columns and labels:
A549 = experiment: MTT cell proliferation test, cytotoxicity on A549 lung cancer cells; format: cell-based; conditions: A549, 72 hrs incubation, read-out: IC50 μmole/L, after 72 hrs incubation time
Experimental: (§1) IC50 Determination Using the Photometric Assay.
(§2) All cell lines, MCF7, HT29, HL60, A549 and CRL1790 were purchased from ATCC (American Cell Culture Collection). As exemplified the MCF-7 human breast cancer, the cell line was grown in Iscove's Modified Dulbecco's Medium, supplemented with 10% heat-inactivated fetal bovine serum, penicillin (100 Ul/mL), streptomycin (100 μg/mL), amphotericin (250 ng/mL), L-glutamine (2 mM) and 1% non-essential amino acids solution. The culture of HL-60 human leukemia cells was conducted in Iscove's Modified Dulbecco's Medium, supplemented with 20% heat-inactivated fetal bovine serum, penicillin (100 Ul/mL), streptomycin (100 μg/mL), amphotericin (250 ng/mL), L-glutamine (2 mM) and 1% non-essential amino acids solution.
(§3) The cells were grown at 37° C. in a humidified atmosphere containing 5% CO2. After 80% confluence was reached, the adherent MCF7, HL-60, cells were detached with a 0.25% trypsin solution and seeded in 96-well plates at a density of 5×10^4 cells/mL, 5×10^5 cells/mL, respectively.
(§4) After overnight incubation, the increasing concentrations (0.1-20 μM) of studied compounds dissolved in DMSO were added to the wells. Pure DMSO diluted at the ratio of 1:1000 (v/v) in growth media was added to control wells. After 24, 48 or 72 hours of incubation the MTT-cell proliferation test was performed.
(§5) The test exploits the ability of living cells mitochondrial dehydrogenases to convert water-soluble 3-(4,5-dimethylthiazol-2-yl)-2,5-diphenyltetrazolium bromide (MTT) to non-soluble formazan. Briefly, after 3 hours incubation of cells with MTT solution the absorbance of formazan dissolved in isopropyl alcohol was measured in a Power Wavex microplate spectrophotometer (BioTek Instruments) at 570 nm.
(§6) In order to compare the cytotoxicity of studied compounds the IC50 values (the concentrations which induce the cell viability decreased to 50% of the control) were determined. The normalized MTT data were fitted to log(inhibitor) vs. response-variable slope model (R^2>0.9) described by the Equation 1 using Prism 5 ver 5.03 (GraphPad Software, Inc):
(§7) [formula] where: V—cell viability, c—compound concentration, h—Hill coefficient.
(§8) As a result log IC50 with the standard error were calculated.

HT29 = experiment: MTT cell proliferation test, cytotoxicity on HT29 colon cancer cells; format: cell-based; conditions: HT29, 72 hrs incubation, read-out: IC50 μmole/L, after 72 hrs incubation time
Experimental: as §1, §2, §3, §4, §5, §6, §7, §8

HL60 = experiment: MTT cell proliferation test, cytotoxicity on HL60 leukemia cells; format: cell-based, human
Experimental: as §1, §2, §3, §4, §5, §6, §7, §8

MCF7 = experiment: MTT cell proliferation test, cytotoxicity on MCF7 breast cancer cells; format: cell-based, human; conditions: MCF7, 72 hrs incubation, read-out: IC50 μmole/L, after 72 hrs incubation time
Experimental: as §1, §2, §3, §4, §5, §6, §7, §8

CRL1790 = experiment: MTT cell proliferation test, cytotoxicity on CRL1790 normal cells; format: cell-based; conditions: CRL1790, 72 hrs incubation, read-out: IC50 μmole/L, after 72 hrs incubation time
Experimental: as §1, §2, §3
[…] Pure DMSO diluted at the ratio of 1:1000 (v/v) in growth media was added to control wells. After 24, 48 or 72 hours of incubation the MTT-cell proliferation test was performed.
as §5
as §6, with “Inc): […]” for “Inc):”
as §8

[1] = Blood, HL60, 72 hrs incubation, MTT, read-out: IC50 μmole/L, after 72 hrs incubation time

Structure (SMILES)	IC50 (A549)	IC50 (HT29)	IC50 (HL60; no unit or cell line printed, values match the HL60 line of Table 1, read-out: IC50)	IC50 (MCF7)	IC50 (CRL1790)	IC50 (HL60; [1])
C=c1c2c(CC)c3cc(O)ccc3nc2c2cc3c(c(=O)n12)COC(=O)C3(O)CC (centres unmarked) [Compound 5, 5-methylidene-7-ethyl-10-hydroxycamptothecin]	1.94 µmol/L	0.15 µmol/L	–	–	–	–
CCc1c2c(nc3ccc(O)c(CN4CCCC4)c13)-c1cc3c(c(=O)n1C2)COC(=O)C3(O)CC (centres unmarked) [CC2, (N-pyrrolidinyl)methyl-7-ethyl-10-hydroxycamptothecin, reference compound]	0.083 µmol/L	0.24 µmol/L	0.014 µmol/L	1.43 µmol/L	–	–
CCc1c2c(nc3ccc(O)c(CN4CCC4)c13)-c1cc3c(c(=O)n1[C@H]2CO)COC(=O)C3(O)CC (stereo partly drawn) [Compound 6, 5-(R)-hydroxymethyl-7-ethyl-9-(N-azetidinyl)methyl-10-hydroxycamptothecin]	5.22 µmol/L	6.98 µmol/L	–	11.1 µmol/L	> 1000 µmol/L	0.33 µmol/L
CCc1c2c(nc3ccc(O)cc13)-c1cc3c(c(=O)n1[C@H]2CN1CCCC1)COC(=O)[C@]3(O)CC [Compound 1, 5-(R)—(N-pyrrolidinyl)methyl-7-ethyl-10-hydroxycamptothecin]	0.204 µmol/L	0.6 µmol/L	–	0.81 µmol/L	–	0.011 µmol/L
CCc1c2c(nc3ccc(O)cc13)-c1cc3c(c(=O)n1C2)COC(=O)[C@]3(O)CC [SN38, 7-ethyl-10-hydroxycamptothecin]	0.028 µmol/L	0.02 µmol/L	–	0.66 µmol/L	4.98 µmol/L	0.002 µmol/L
CCc1c2c(nc3ccc(O)cc13)-c1cc3c(c(=O)n1[C@H]2CO)COC(=O)C3(O)CC (stereo partly drawn) [Compound 3, 5-(R)-hydroxymethyl-7-ethyl-10-hydroxycamptothecin]	4.27 µmol/L	9.48 µmol/L	–	15.9 µmol/L	–	0.72 µmol/L
CCc1c2c(nc3ccc(O)c(CN4CCC4)c13)-c1cc3c(c(=O)n1[C@@H]2CO)COC(=O)[C@]3(O)CC [Compound 7, 5-(S)-hydroxymethyl-7-ethyl-9-(N-azetidinyl)methyl-10-hydroxycamptothecin]	1.17 µmol/L	2.5 µmol/L	–	6.7 µmol/L	> 1000 µmol/L	0.11 µmol/L
CCc1c2c(nc3ccc(O)c(CN4CCC4)c13)-c1cc3c(c(=O)n1C2)COC(=O)C3(O)CC (centres unmarked) [CC1, (N-azetidinyl)methyl-7-ethyl-10-hydroxycamptothecin, reference compound]	0.071 µmol/L	0.07 µmol/L	–	0.99 µmol/L	–	0.012 µmol/L
CCc1c2c(nc3ccc(O)cc13)-c1cc3c(c(=O)n1[C@@H]2CN1CCCC1)COC(=O)C3(O)CC (stereo partly drawn) [Compound 2, 5-(S)—(N-pyrrolidinyl)methyl-7-ethyl-10-hydroxycamptothecin]	0.272 µmol/L	0.49 µmol/L	–	0.96 µmol/L	–	0.007 µmol/L
CCc1c2c(nc3ccc(O)cc13)-c1cc3c(c(=O)n1[C@@H]2CO)COC(=O)[C@]3(O)CC [Compound 4, 5-(S)-hydroxymethyl-7-ethyl-10-hydroxycamptothecin]	6.54 µmol/L	14.8 µmol/L	–	14.9 µmol/L	–	1.89 µmol/L

Source: US12091417B2, “7-ethyl-10-hydroxycamptothecin derivatives for use in the treatment of cancer” (Narodowy Instytut Lekow, priority 2020, dated 2024)
